From PMC8426393, “Interactions of anti-COVID-19 drug candidates with hepatic transporters may cause liver toxicity and affect pharmacokinetics” (Scientific Reports, 2021)
Entries after “also recorded” stand apart in the source; their conditions may differ. Where two headings read alike, the source gives them in different places.

Legend:
MATE1/SLC47A1 = target: T1, MATE1/SLC47A1 (Homo sapiens, UniProt Q96FL8); assay: MATE1-dependent metformin uptake in MATE1-overexpressing MDCKII cells; assay type: cell-based; conditions: for MATE1/SLC47A1 Type of effect: metformin 10 µM, 10 min, 37 °C, MDCKII cells
T1 construct: expressed in transfected cells; host or cells: MDCKII cells, lentiviral transduction
T1 sequence (Q96FL8 1-570): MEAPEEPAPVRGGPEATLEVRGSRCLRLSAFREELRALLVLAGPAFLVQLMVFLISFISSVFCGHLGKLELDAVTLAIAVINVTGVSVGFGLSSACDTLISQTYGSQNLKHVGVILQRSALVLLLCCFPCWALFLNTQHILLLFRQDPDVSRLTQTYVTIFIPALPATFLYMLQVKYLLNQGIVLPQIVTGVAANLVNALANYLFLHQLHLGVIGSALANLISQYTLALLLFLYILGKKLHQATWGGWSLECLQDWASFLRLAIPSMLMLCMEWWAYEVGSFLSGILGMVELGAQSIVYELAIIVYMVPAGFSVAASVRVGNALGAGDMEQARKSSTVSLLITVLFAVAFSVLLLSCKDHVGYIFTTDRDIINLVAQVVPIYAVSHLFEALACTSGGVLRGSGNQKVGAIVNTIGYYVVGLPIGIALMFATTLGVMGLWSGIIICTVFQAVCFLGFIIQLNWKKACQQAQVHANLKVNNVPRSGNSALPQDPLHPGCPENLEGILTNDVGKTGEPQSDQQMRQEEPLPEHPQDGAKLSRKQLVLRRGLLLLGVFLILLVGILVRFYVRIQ

OCT1/SLC22A1 = target: T2, OCT1/SLC22A1 (Homo sapiens, UniProt O15245); assay: OCT1-dependent metformin uptake in OCT1-overexpressing HEK-293 cells; assay type: cell-based; conditions: for OCT1/SLC22A1 Type of effect: metformin 10 µM, 5 min, 37 °C, HEK-293 cells
T2 construct: expressed in transfected cells; host or cells: HEK-293 cells, lentiviral transduction
T2 sequence (O15245 1-554): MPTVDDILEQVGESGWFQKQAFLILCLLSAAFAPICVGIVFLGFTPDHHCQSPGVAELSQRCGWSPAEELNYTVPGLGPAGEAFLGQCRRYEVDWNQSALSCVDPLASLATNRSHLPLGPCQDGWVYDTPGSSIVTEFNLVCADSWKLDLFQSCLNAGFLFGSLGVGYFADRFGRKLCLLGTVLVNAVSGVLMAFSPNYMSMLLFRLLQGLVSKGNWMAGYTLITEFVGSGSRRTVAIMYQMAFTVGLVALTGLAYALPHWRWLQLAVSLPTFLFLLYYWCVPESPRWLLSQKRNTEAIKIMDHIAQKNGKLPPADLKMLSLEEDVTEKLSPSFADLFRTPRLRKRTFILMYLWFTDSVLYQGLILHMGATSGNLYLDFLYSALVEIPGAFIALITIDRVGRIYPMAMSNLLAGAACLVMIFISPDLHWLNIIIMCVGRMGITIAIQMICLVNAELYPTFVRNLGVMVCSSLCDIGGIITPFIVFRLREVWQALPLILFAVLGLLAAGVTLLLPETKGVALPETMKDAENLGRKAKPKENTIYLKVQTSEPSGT

ABCB11/BSEP = target: T3, ABCB11/BSEP (Homo sapiens, UniProt O95342); assay: BSEP vesicular transport: ATP- and glyburide-sensitive taurocholate uptake into inverted HEK-293 membrane vesicles; assay type: biochemical; conditions: for ABCB11/BSEP Type of effect: HEK-293 vesicles; for concentration at which BSEP inhibition is effective: taurocholate transport
T3 construct: purchased Solvo Biotechnology (Budapest, Hungary); host or cells: HEK-293 cells

ABCC4/MRP4 = target: T4, ABCC4/MRP4 (Homo sapiens, UniProt O15439); assay: MRP4 vesicular transport: ATP-dependent DHEAS uptake into inverted HEK-293 membrane vesicles; assay type: biochemical; conditions: for inhibition at […]: up to 50 µM drug, read-out: maximum inhibition of MRP4-dependent substrate transport; for ABCC4/MRP4 Type of effect: DHEAS 0.5 µM, 32 °C, HEK-293 vesicles
T4 construct: purchased Solvo Biotechnology (Budapest, Hungary); host or cells: HEK-293 cells
T4 sequence (O15439 1-1325): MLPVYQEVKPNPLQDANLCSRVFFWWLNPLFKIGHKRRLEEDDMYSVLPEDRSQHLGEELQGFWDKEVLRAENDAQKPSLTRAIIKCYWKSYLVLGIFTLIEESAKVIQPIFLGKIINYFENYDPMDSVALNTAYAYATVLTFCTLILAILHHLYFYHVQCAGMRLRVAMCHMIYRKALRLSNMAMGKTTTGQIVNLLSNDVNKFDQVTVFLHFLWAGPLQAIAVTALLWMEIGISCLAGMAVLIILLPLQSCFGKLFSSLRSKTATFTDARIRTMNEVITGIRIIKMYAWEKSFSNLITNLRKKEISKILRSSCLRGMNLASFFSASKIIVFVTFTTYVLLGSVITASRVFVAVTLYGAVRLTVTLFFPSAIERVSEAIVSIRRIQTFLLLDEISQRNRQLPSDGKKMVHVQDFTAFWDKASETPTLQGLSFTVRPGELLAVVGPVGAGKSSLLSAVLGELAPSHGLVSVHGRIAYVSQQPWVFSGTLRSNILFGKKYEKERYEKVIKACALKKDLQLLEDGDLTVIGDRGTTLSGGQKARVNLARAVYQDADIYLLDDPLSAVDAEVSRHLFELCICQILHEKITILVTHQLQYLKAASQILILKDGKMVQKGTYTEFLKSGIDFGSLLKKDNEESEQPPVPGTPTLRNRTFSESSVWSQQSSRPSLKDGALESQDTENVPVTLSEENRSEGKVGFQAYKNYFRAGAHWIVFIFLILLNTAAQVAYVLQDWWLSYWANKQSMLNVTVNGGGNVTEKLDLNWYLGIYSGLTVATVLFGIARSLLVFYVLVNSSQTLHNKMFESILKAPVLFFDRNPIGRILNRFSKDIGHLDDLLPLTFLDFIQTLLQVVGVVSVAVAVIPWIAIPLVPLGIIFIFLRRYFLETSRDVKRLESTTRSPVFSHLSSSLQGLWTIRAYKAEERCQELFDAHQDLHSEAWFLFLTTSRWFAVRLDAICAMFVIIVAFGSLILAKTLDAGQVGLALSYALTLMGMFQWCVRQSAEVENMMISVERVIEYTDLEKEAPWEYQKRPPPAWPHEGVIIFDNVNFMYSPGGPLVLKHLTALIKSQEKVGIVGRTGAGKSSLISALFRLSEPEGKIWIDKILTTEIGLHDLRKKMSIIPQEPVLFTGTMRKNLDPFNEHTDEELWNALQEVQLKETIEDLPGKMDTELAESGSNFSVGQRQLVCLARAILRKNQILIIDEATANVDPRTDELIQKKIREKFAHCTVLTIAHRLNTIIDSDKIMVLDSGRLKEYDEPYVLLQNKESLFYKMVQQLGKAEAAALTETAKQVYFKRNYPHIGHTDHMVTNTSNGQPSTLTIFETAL

[1] = cited from earlier work
ABCG2/BCRP = test system: ABCG2/BCRP; design: method as in Telbisz et al., 2021; conditions: vesicular transporter assay, measured previously; ref Telbisz et al., 2021; cited from earlier work
ABCB1/Pgp = test system: ABCB1/Pgp; design: method as in Telbisz et al., 2021; conditions: vesicular transporter assay, measured previously; ref Telbisz et al., 2021; cited from earlier work
[2] = taurocholate 2 µM, 37 °C, 10 min
[3] = human, probe DHEAS (0.5 µM unlabeled plus 0.2 µCi radiolabeled)

T3 sequence (O95342 whole entry): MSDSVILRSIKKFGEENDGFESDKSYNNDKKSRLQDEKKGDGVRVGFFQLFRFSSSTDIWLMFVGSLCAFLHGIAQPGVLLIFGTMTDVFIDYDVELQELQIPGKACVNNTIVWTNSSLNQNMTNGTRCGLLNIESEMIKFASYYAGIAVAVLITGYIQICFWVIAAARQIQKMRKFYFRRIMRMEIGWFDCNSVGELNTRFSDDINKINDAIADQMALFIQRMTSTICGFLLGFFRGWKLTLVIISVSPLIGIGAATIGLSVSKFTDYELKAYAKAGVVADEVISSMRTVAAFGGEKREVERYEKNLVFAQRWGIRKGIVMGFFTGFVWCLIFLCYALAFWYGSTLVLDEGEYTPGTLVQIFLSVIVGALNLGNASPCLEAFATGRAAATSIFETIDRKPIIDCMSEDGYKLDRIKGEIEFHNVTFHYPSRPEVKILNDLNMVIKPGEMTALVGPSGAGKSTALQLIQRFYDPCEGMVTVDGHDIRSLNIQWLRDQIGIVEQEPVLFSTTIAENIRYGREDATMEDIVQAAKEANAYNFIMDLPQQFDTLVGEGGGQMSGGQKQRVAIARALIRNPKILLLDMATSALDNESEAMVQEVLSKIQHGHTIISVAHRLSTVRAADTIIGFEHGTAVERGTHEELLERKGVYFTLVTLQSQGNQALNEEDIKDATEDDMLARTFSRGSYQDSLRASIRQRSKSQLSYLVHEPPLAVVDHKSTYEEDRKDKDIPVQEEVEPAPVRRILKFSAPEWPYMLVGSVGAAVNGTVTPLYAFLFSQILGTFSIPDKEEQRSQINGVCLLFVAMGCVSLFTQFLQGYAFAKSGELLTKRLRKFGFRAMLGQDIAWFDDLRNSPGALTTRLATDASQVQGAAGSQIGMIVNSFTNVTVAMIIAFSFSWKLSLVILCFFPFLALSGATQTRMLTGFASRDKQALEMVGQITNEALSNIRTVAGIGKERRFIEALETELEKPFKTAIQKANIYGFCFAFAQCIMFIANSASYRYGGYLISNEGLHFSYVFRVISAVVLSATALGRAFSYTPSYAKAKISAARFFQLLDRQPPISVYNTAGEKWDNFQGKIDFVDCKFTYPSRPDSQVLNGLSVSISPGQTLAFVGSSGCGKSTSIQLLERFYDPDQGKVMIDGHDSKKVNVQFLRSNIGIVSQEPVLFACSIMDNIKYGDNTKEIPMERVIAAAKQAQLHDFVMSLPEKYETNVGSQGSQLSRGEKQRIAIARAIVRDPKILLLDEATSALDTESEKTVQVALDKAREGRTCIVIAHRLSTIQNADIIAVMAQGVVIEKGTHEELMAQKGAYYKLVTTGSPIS

Compound	MATE1/SLC47A1 Type of effect (MATE1/SLC47A1)	OCT1/SLC22A1 Type of effect (OCT1/SLC22A1)	ABCB11/BSEP Type of effect (ABCB11/BSEP; [2])	inhibition at […] (ABCC4/MRP4; [3])	IC50 (MATE1/SLC47A1)	IC50 (OCT1/SLC22A1)	IC50 (ABCB11/BSEP)	concentration at which BSEP inhibition is effective (ABCB11/BSEP)	ABCG2/BCRP type of effect (ABCG2/BCRP)	IC50 (ABCG2/BCRP)	ABCB1/Pgp Type of effect (ABCB1/Pgp)	IC50 (ABCB1/Pgp)	ABCC4/MRP4 Type of effect (ABCC4/MRP4)	also measured
NC(=O)c1nc(F)c[nH]c1=O [FAV, favipiravir]	practically no inhibition	no significant inhibitory action	did not modify BSEP-mediated TC transport	10 to 30%										
CCC(CC)COC(=O)[C@H](C)N[P@](=O)(OC[C@H]1O[C@@](C#N)(c2ccc3c(N)ncnn23)[C@H](O)[C@@H]1O)Oc1ccccc1 [REM, remdesivir]	strong inhibitory action and inh	strong inhibitory effect and inh	inh		2.3 µM	6.1 µM	≥ 40 µM	above 20 µM	inh	> 50 µM	inh	> 20 µM		concentration of strong inhibitory effect on OCT1 (OCT1/SLC22A1; metformin uptake): below 10 µM; T1/2 ([1]; clearance from the human body): 1.15 h; Cmax ([1]; intravenous 100 mg, healthy adults, ref FDA label 214787Orig1s000): 3.7 µM; inhibition at 10 min, 50 µM (ABCB11/BSEP; human, at 50 µM): 40 to 50%; IC50 (ABCC4/MRP4): 2.9 µM; IC50 at […] (ABCC4/MRP4; [3]): ~2.3 µM
CCC(C)C1OC2(CCC1C)CC1CC(CC=C(C)C(OC3CC(OC)C(OC4CC(OC)C(O)C(C)O4)C(C)O3)C(C)C=CC=C3COC4C(O)C(C)=CC(C(=O)O1)C34O)O2 (stereo not drawn) [IVE, ivermectin]	practically no inhibition; also recorded: No effect	no significant inhibitory action; also recorded: no effect	inh					above 20 µM	inh	1.1 µM	inh	0.3 µM	No effect	peak plasma concentration ([1]; 165 µg/kg IVE dose, ref FDA guideline for stromectol): 46 ng/mL; IC50 (ABCB11/BSEP; approximate IC50, taurocholate 2 µM, 37 °C, 10 min): ≥ 30 µM
Cc1cccc(C)c1OCC(=O)N[C@@H](Cc1ccccc1)[C@@H](O)C[C@H](Cc1ccccc1)NC(=O)[C@H](C(C)C)N1CCCNC1=O [LOP, lopinavir]	strong inhibitory action and inh	less inhibitory and inh	strongly inhibited TC transport at low concentrations and inh	10 to 30%	7.7 µM	> 50 µM	7.8 µM		inh	4.2 µM	inh	0.6 µM	No effect	peak plasma concentrations in vivo ([1]; Kaletra 400 mg lopinavir and 100 mg ritonavir in combination): 11 to 20 µM
